The results in this text go back to US10167279B2 (NOVARTIS AG, priority 2014, dated 2019).

Each structure is given as a SMILES string.

For orientation: IC50 means the concentration that inhibits the measured activity by half.

b-Raf (V600E), sequence (P15056 whole entry V600E): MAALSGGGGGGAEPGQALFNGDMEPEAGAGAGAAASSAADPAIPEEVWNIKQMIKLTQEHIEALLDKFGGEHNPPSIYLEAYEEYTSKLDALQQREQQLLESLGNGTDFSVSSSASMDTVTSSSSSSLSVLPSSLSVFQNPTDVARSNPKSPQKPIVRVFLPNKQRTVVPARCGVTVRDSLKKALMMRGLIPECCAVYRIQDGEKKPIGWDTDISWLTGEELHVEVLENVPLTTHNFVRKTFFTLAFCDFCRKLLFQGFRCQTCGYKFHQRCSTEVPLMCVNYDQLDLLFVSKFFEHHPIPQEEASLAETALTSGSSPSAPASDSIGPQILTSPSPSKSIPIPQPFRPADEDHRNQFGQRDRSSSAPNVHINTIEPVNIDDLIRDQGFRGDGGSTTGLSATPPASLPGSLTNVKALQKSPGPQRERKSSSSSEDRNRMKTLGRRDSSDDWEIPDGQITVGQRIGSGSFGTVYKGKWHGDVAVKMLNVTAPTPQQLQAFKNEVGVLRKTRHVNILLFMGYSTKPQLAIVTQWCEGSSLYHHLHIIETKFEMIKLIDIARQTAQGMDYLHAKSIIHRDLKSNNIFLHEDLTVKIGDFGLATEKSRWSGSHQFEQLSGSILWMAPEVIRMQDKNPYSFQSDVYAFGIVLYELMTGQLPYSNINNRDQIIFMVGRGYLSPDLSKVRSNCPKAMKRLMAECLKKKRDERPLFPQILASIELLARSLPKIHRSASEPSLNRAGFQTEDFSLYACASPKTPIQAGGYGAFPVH

One experiment concerns the target b-Raf (V600E) (Homo sapiens (Human), UniProt P15056, V600E). The experiment can be described thus: In vitro Raf activity determination (Alpha Screen, phospho-MEK), b-Raf (V600E). The format is biochemical. Conditions: ATP 10 μM, 60 min pre-incubation, 3 hours reaction. The source says:
The activity of a compound according to the present invention can be assessed by well-known in vitro & in vivo methods. Raf inhibition data provided herein was obtained using the following procedures.
Sf9 cells co-expressing both proteins were lysed and subjected to immobilized nickel chromatography and eluted with Imidazole. A second column (StrepII binding column) was used and eluted with desthiobiotin. Protein Tags were removed using Prescission enzyme and the protein was further purified using a flowthrough step to remove tags.
Full length MEK1 with an inactivating K97R ATP binding site mutation is utilized as a RAF substrate. The MEK1 cDNA was subcloned with an N-terminal (his)6 tag into a vector for E. Coli expression. The MEK1 substrate was purified from E. Coli lysate by nickel affinity chromatography followed by anion exchange. The final MEK1 preparation was biotinylated (Pierce EZ-Link Sulfo-NHS-LC-Biotin) and concentrated.
The plate was incubated for 60 minutes at room temperature. […] The additions were carried out under dark conditions to protect the detection beads from light. A lid was placed on top of the plate and incubated for 1 hour at room temperature, after which the luminescence was read on a PerkinElmer Envision instrument.
Turning to `COc1ncc(-c2cc(C(=O)Nc3ccnc(S(C)(=O)=O)c3)ccc2C)cc1C1(O)COC1` [Example 145, 3-(5-(3-hydroxyoxetan-3-yl)-6-methoxypyridin-3-yl)-4-methyl-N-(2-(methylsulfonyl)pyridin-4-yl)benzamide], the midpoint of inhibition, the IC50, lay at 49.3 nM.

`CCOc1ncc(-c2cc(NC(=O)c3ccnc(C(C)(C)C#N)c3)ccc2C)cc1C1(CF)COC1` [Example 31, 2-(2-cyanopropan-2-yl)-N-(3-(6-ethoxy-5-(3-(fluoromethyl)oxetan-3-yl)pyridin-3-yl)-4-methylphenyl)isonicotin-amide] showed an IC50 of 0.446 nM.

In turn, `COc1ncc(-c2cc(NC(=O)c3cc(C(C)(C)N)cc(C(F)(F)F)c3)ccc2C)cc1C1(F)COC1` [Example 107, 3-(2-aminopropan-2-yl)-N-(3-(5-(3-fluorooxetan-3-yl)-6-methoxypyridin-3-yl)-4-methylphenyl)-5-(trifluoromethyl)benzamide] had a 50% inhibitory concentration (IC50) of 2.96 nM. Compared with the last compound, the IC50 is about 6.6-fold higher.

Turning to `COc1ncc(-c2cc(NC(=O)c3cc(C(C)(C)N)cc(C(F)(F)F)c3)cnc2C)cc1C1(C(F)F)COC1` [Example 113, 3-(2-aminopropan-2-yl)-N-(5′-(3-(difluoromethyl)oxetan-3-yl)-6′-methoxy-2-methyl-[3,3′-bipyridin]-5-yl)-5-(trifluoromethyl)benzamide], it took 4.75 nM to reach half-maximal inhibition (IC50).

In turn, `COc1ncc(-c2cc(NC(=O)c3cc(C(C)(F)F)ccn3)cnc2C)cc1C1(O)COC1` [Example 91] registered an IC50 of 13 nM.

As for `COc1ncc(-c2cc(NC(=O)c3cc(C(C)(F)F)ccn3)ccc2C)cc1C1(F)COC1` [Example 89, 4-(1,1-difluoroethyl)-N-(3-(5-(3-fluorooxetan-3-yl)-6-methoxypyridin-3-yl)-4-methylphenyl)picolinamide], the IC50 turned out to be 1.19 nM.

The target of another experiment is C-Raf FL (Homo sapiens (Human), UniProt P04049, Y340E/Y341E). The experiment can be described thus: In vitro Raf activity determination (Alpha Screen, phospho-MEK), C-Raf FL (full length, Y340E/Y341E). The format is biochemical. Conditions: ATP 1 μM; 60 min pre-incubation; 1 hour reaction; column head does not say FL or TR. In short, it runs like this: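 Read-out is AlphaScreen luminescence using rabbit anti-p-MEK with protein A beads after EDTA stop, with IC50 fitted by non-linear regression. Reaction: Sf9-derived C-Raf plus biotinylated E. coli MEK1 K97R substrate, pH 7.5 Tris/MgCl2/DTT buffer, compound preincubated 60 min at room temperature.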
C-Raf FL, sequence (P04049 whole entry Y340E/Y341E): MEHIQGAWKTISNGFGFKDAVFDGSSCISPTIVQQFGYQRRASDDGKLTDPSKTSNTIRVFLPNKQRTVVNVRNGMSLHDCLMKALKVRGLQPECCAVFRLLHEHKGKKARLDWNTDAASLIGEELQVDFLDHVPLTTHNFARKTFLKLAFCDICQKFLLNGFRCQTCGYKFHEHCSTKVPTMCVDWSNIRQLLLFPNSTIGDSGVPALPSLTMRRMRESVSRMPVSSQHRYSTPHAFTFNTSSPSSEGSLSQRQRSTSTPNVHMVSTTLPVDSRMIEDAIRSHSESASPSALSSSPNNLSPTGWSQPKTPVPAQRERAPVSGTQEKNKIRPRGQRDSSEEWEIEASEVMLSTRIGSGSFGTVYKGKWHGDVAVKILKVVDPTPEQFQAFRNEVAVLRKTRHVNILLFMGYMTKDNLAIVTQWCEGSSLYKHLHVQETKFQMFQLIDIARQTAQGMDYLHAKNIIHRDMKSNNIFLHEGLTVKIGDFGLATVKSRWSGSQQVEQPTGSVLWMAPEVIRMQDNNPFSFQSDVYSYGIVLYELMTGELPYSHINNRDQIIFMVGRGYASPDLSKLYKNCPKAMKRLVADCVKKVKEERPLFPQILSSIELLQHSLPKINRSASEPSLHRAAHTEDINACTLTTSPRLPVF
C-Raf FL, sequence (P63104 whole entry partner): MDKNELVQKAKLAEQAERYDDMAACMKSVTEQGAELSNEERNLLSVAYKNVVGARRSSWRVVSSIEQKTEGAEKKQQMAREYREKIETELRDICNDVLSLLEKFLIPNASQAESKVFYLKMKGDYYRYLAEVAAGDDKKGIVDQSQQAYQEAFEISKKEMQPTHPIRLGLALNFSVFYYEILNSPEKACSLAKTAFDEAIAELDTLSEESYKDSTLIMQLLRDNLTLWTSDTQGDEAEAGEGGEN
The compound `COc1ncc(-c2cc(C(=O)Nc3ccnc(S(C)(=O)=O)c3)ccc2C)cc1C1(O)COC1` [Example 145, 3-(5-(3-hydroxyoxetan-3-yl)-6-methoxypyridin-3-yl)-4-methyl-N-(2-(methylsulfonyl)pyridin-4-yl)benzamide] displayed an IC50 of 7.29 nM. In other words, the single-digit nanomolar range.

Compound `CCOc1ncc(-c2cc(NC(=O)c3ccnc(C(C)(C)C#N)c3)ccc2C)cc1C1(CF)COC1` [Example 31, 2-(2-cyanopropan-2-yl)-N-(3-(6-ethoxy-5-(3-(fluoromethyl)oxetan-3-yl)pyridin-3-yl)-4-methylphenyl)isonicotin-amide] came in with an IC50 of 0.157 nM.

`COc1ncc(-c2cc(NC(=O)c3cc(C(C)(C)N)cc(C(F)(F)F)c3)ccc2C)cc1C1(F)COC1` [Example 107, 3-(2-aminopropan-2-yl)-N-(3-(5-(3-fluorooxetan-3-yl)-6-methoxypyridin-3-yl)-4-methylphenyl)-5-(trifluoromethyl)benzamide] showed a 50% inhibitory concentration (IC50) of 0.725 nM. This IC50 lies about 4.6-fold higher than the previous one.

With `COc1ncc(-c2cc(NC(=O)c3cc(C(C)(C)N)cc(C(F)(F)F)c3)cnc2C)cc1C1(C(F)F)COC1` [Example 113, 3-(2-aminopropan-2-yl)-N-(5′-(3-(difluoromethyl)oxetan-3-yl)-6′-methoxy-2-methyl-[3,3′-bipyridin]-5-yl)-5-(trifluoromethyl)benzamide], 0.9 nM corresponded to half-maximal inhibition (IC50).

Compound `COc1ncc(-c2cc(NC(=O)c3ccnc(C(C)(C)C#N)c3)cnc2C)cc1C1(F)COC1` [Example 80, 2-(2-cyanopropan-2-yl)-N-(5′-(3-fluorooxetan-3-yl)-6′-methoxy-2-methyl-[3,3′-bipyridin]-5-yl)isonicotinamide] returned an IC50 of 2 nM.

As for `Cc1ccc(NC(=O)c2ccnc(C#N)c2)cc1-c1cc(OCCO)nc(C2CCOCC2)c1` [Example 263, 2-cyano-N-(3-(2-(2-hydroxyethoxy)-6-(tetrahydro-2H-pyran-4-yl)pyridin-4-yl)-4-methylphenyl) isonicotinamide], inhibition was half-maximal at 0.2 nM (IC50).

In turn, `Cc1ccc(NC(=O)c2ccnc(C(F)(F)F)c2)cc1-c1cc(NCCO)nc(C2(O)COC2)c1` [Example 299, N-(3-(2-((2-hydroxyethyl)amino)-6-(3-hydroxyoxetan-3-yl)pyridin-4-yl)-4-methylphenyl)-2-(trifluoromethyl) isonicotinamide] yielded an IC50 of 0.1 nM.

In turn, `Cc1nc2cc(C3CCOCC3)cc(-c3cc(NC(=O)c4cc(C(F)(F)F)ccn4)ccc3C)c2[nH]1` [Example 224, N-(4-methyl-3-(2-methyl-5-(tetrahydro-2H-pyran-4-yl)-1H-benzo[d]imidazol-7-yl)penyl)-4-(trifluoromethyl) picolinamide] yielded an IC50 of 5 nM.

In the case of `CCOc1nnc(-c2cc(NC(=O)c3ccnc(C(C)(C)F)c3)ccc2C)cc1C1CCOCC1` [Example 238, N-(3-(6-ethoxy-5-(tetrahydro-2H-pyran-4-yl)pyridazin-3-yl)-4-methylphenyl)-2-(2-fluoropropan-2-yl) isonicotinamide], the IC50 turned out to be 0.07 nM.

As to `Cc1ccc(NC(=O)c2ccnc(C(C)(C)C#N)c2)cc1-c1cc(C2CCOCC2)nc(N(CCO)CCO)c1` [Example 179, N-(3-(2-(bis(2-hydroxyethyl)amino)-6-(tetrahydro-2H-pyran-4-yl)pyridin-4-yl)-4-methylphenyl)-2-(2-cyanopropan-2-yl) isonicotinamide], the 50% inhibitory concentration (IC50) was 0.795 nM. This IC50 is about 11-fold higher than that of the compound before.

Compound `COCCOc1nnc(-c2cc(NC(=O)c3ccnc(C(F)(F)F)c3)ccc2C)cc1C1CCOCC1` [Example 315, N-(3-(6-(2-methoxyethoxy)-5-(tetrahydro-2H-pyran-4-yl)pyridazin-3-yl)-4-methylphenyl)-2-(trifluoromethyl) isonicotinamide] displayed a half-inhibitory concentration (IC50) of 0.1 nM. Against the preceding compound, the IC50 is about 8-fold lower.

On to `Cc1nc2cc(C3CCOCC3)cc(-c3cc(NC(=O)c4ccnc(C(C)(F)F)c4)ccc3C)c2[nH]1` [Example 222, 2-(1,1-difluoroethyl)-N-(4-methyl-3-(2-methyl-5-(tetrahydro-2H-pyran-4-yl)-1H-benzo[d]imidazol-7-yl)phenyl) isonicotinamide], for which half-maximal inhibition (IC50) was put at 0.4 nM.

Consider `Cc1ccc(NC(=O)c2cc(Cl)ccn2)cc1-c1cc(OC[C@H](O)CO)nc(C2CCOCC2)c1` [Example 278, (R)-4-chloro-N-(3-(2-(2,3-dihydroxypropoxy)-6-(tetrahydro-2H-pyran-4-yl)pyridin-4-yl)-4-methylphenyl) picolinamide], for which the half-maximal inhibitory concentration (IC50) came out at 0.05 nM.

Compound `COc1ncc(-c2cc(C(=O)Nc3ccnc(C(F)(F)F)c3)ccc2C)cc1C1(O)COC1` [Example 17, 3-(5-(3-hydroxyoxetan-3-yl)-6-methoxypyridin-3-yl)-4-methyl-N-(2-(trifluoromethyl)pyridin-4-yl)benzamide] displayed a 50% inhibitory concentration (IC50) of 0.7 nM.

In turn, `Cc1ccc(NC(=O)c2cc(C(F)(F)F)cnn2)cc1-c1cc(OC[C@H](O)CO)nc(C2CCOCC2)c1` [Example 274] registered a half-inhibitory concentration (IC50) of 0.03 nM.

Compound `CCOc1nnc(-c2cc(NC(=O)c3cncc(C(F)(F)F)c3)ccc2C)cc1C1CCOCC1` [Example 231, N-(3-(6-ethoxy-5-(tetrahydro-2H-pyran-4-yl)pyridazin-3-yl)-4-methylphenyl)-5-(trifluoromethyl) nicotinamide] yielded an IC50 of 0.2 nM.

Regarding `Cc1ccc(NC(=O)c2cc(C(F)(F)F)c(Cl)cn2)cc1-c1cc(OC[C@H](O)CO)nc(C2CCOCC2)c1` [Example 282, (R)-5-chloro-N-(3-(2-(2,3-dihydroxypropoxy)-6-(tetrahydro-2H-pyran-4-yl)pyridin-4-yl)-4-methylphenyl)-4-(trifluoromethyl) picolinamide], it took 0.3 nM to reach half-maximal inhibition (IC50).

Regarding `Cc1ccc(NC(=O)c2cc(C(F)(F)F)cn(C)c2=O)cc1-c1cc(OCCO)nc(C2CCOCC2)c1` [Example 253, N-(3-(2-(2-hydroxyethoxy)-6-(terahydro-2H-pyran-4-yl)pyridin-4-yl)-4-methylphenyl)-1-methyl-2-oxo-5-(trifluoromethyl)-1,2-dihydropyridine-3-carboxamide], half-maximal inhibition (IC50) was put at 0.1 nM.

On to `Cc1ccc(NC(=O)c2ccnc(C(F)(F)F)c2)cc1-c1cc(OCCO)nc(C2CCOCC2O)c1` (centres unmarked) [Example 162, N-(3-(2-(2-hydroxyethoxy)-6-(3-hydroxytetrahydro-2H-pyran-4-yl)pyridin-4-yl)-4-methylphenyl)-2-(trifluoromethyl)isonicotinamide], for which the half-inhibitory concentration (IC50) amounted to 1 nM.

`Cc1ccc(NC(=O)c2ccnc(C(F)(F)F)c2)cc1-c1cc(OCCO)nc(C2CCOCC2O)c1` (single isomer, unassigned) [Example 250]: the concentration for half-maximal inhibition (IC50) was determined as 1 nM.

On to `Cc1ncc(NC(=O)c2cccc(C(F)(F)F)c2)cc1-c1cc(C2(O)COC2)cc(C2(F)COC2)c1` [Example 139, N-(5-(3-(3-fluorooxetan-3-yl)-5-(3-hydroxyoxetan-3-yl)phenyl)-6-methylpyridin-3-yl)-3-(trifluoromethyl)benzamide], for which inhibition was half-maximal at 1.18 nM (IC50).

Consider `Cc1ccc(NC(=O)c2cncc(C(F)(F)F)c2)cc1-c1cc(OCCO)nc(C2CCOCC2)c1` [Example 265, N-(3-(2-(2-hydroxyethoxy)-6-(tetrahydro-2H-pyran-4-yl)pyridin-4-yl)-4-methylphenyl)-5-(trifluoromethyl) nicotinamide], for which the IC50 stood at 0.1 nM. This IC50 lies about 12-fold lower than the previous one.

`Cc1ccc(NC(=O)c2ccnc(C(F)(F)F)c2)cc1-c1cc(NCCO)nc(C2(O)CCOCC2)c1` [Example 287, N-(3-(2-((2-hydroxyethyl)amino)-6-(4-hydroxytetrahydro-2H-pyran-4-yl)pyridin-4-yl)-4-methylphenyl)-2-(trifluoromethyl)isonicotinamide] showed a concentration for half-maximal inhibition (IC50) of 0.393 nM. Against the preceding compound, the IC50 is about 3.9-fold higher.

Turning to `Cc1ccc(NC(=O)c2ccnc(C(F)(F)F)c2)cc1-c1cc(C2CCOCC2)c(OC(C)C)nn1` [Example 316, N-(3-(6-isopropoxy-5-(tetrahydro-2H-pyran-4-yl)pyridazin-3-yl)-4-methylphenyl)-2-(trifluoromethyl) isonicotinamide], the half-inhibitory concentration (IC50) was determined as 0.1 nM. This IC50 is about 3.9-fold lower than that of the compound before.

Take `Cc1ncc(NC(=O)c2cccc(C(F)(F)F)c2)cc1-c1cc(C2(F)COC2)c(=O)n(CCO)c1` [Example 46, N-(5′-(3-fluorooxetan-3-yl)-1′-(2-hydroxyethyl)-2-methyl-6′-oxo-1′,6′-dihydro-[3,3′-bipyridin]-5-yl)-3-(trifluoromethyl)benzamide]: the IC50 is 51.5 nM.

The compound `COC1(c2cc(-c3cc(NC(=O)c4cccc(C(F)(F)F)c4)ccc3C)cc(NCCO)n2)COC1` [Example 153, N-(3-(2-((2-hydroxyethyl)amino)-6-(3-methoxyoxetan-3-yl)pyridin-4-yl)-4-methylphenyl)-3-(trifluoromethyl)benzamide] returned an IC50 of 0.04 nM. This IC50 is about 1300-fold lower than that of the compound before.
